From patent publication US5028604A, “Condensed benzene derivative” (Zeria Pharmaceutical Co., Ltd., priority 1988, dated 1991)
Like-named read-outs stand apart in the source and are kept apart here.

Key:
[1] = target: T1, prolyl endopeptidase from canine brain (Canis lupus familiaris, UniProt A0A8I3N6C8); experiment: Inhibitory Activity Against Prolyl Endopeptidase From Brain; assay type: biochemical; conditions: 37° C., pH 7.0, substrate benzyloxycarbonylglycylprolylparanitroanilide; read-out: Inhibition Potency, IC50
T1 construct: A prolyl endopeptidase was prepared from canine brains; from tissue; host or cells: canine brain
T1 sequence (A0A8I3N6C8 1-710): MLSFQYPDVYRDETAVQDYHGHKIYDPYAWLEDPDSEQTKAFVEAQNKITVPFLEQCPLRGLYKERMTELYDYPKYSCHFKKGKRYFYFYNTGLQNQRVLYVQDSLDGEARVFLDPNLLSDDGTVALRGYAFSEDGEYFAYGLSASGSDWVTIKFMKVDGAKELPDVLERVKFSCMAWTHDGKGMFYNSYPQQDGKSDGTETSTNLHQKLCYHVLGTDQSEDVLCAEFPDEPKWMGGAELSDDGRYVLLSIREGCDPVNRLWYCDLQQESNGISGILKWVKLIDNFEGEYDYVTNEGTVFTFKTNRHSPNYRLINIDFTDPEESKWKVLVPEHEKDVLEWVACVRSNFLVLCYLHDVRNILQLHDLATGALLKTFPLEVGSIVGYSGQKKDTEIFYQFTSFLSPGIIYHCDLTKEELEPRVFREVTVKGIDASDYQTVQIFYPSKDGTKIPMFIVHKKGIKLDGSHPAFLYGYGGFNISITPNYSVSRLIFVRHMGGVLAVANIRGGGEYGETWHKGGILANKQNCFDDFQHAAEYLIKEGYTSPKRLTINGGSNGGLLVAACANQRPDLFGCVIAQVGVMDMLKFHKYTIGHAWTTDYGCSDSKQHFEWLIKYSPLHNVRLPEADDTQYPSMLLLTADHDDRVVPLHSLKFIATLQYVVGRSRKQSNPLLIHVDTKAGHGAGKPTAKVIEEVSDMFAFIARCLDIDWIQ
Experimental: Following buffer solutions were used for the measurement.
Buffer A: 20 mM Tris-HCl buffer (pH 7.0)
Buffer B: Buffer A containing 0.1% gelatin, 1 mM EDTA, and 1 mM 2-mercaptoethanol
This solution (50 μl) was added to 940 μl of the Buffer A, and the solution thus obtained was left at 37° C. for 10 minutes (This solution is herein referred to as "Enzyme solution"). A mixed solution of 50 μl of the Buffer B and 940 μl of Buffer A was used as a "Correction solution".
A test compound was dissolved in dimethylsulfoxide, and 10 μl of the solution was added to the Enzyme solution. The mixture was stirred and allowed to stand at 37° C. for 10 minutes. Separately, 10 μl of dimethylsulfoxide was added to the Enzyme solution and was processed in the same manner. The solution thus obtained was served as a "Control solution". The same procedure was carried out on the Correction solution.
One hundred (100) μl of 2.5 mM benzyloxycarbonylglycylprolylparanitroanilide, which was dissolved with 40% dioxane, was added to each of the above 3 solutions, i.e., the Enzyme solution with the test compound, Control solution, and Correction solution, and the reaction was carried out at 37° C. for 10 minutes.
Enzyme activities were determined by subtracting the blank value, i.e., the absorbance measured on the Correction solution, from the absorbance of each of the sample solutions and of the Control solution.

ICR male mice = experiment: Anti-Hypoxic Activity (survival time in 4% O2 + 96% N2); assay type: in vivo; conditions: Mus musculus, ip
Experimental: Groups of ICR male mice (Charles River Co.), age 4 to 5 weeks, each group consisting of 10 mice and each mouse having been fasted for 24 hours, were used for the test. Mice were placed in a transparent desiccator (diameter: 19 cm, height: 30 cm) made of synthetic resin and having 2 valves, one at the upper portion and the other at the lower portion, for replacing the gas therein. A mixed gas (4% O2 +96% N2) was fed from the upper valve at a rate of 10 l/min to measure the period of time until respiratory arrest took place for each mouse. The time measured was taken as the survival time.
Each tested compound suspended in an solvent was intraperitoneally administered 30 minutes before the start of the mixed gas feeding. A group of mice to which only the solvent was intraperitoneally administered was used as a control.
The anti-hypoxic activity was determined according to the following formula, [formula]

CD female rats = experiment: Anti-Amnesic Activity (passive avoidance, electric convulsive shock); assay type: in vivo; conditions: 30 mg/kg P.O., one hour before acquisition trial; ECS; retention trial at 24 hours; solvent + sham 133.0, solvent + ECS 0.8
Experimental: Compounds of this invention were checked with respect to their abilities to prevent the inhibition of long-term memory fixation by electric convulsive shock (ECS). CD female rats (Charles River), weighed 160-180 g were used for the test. One hour after the administration of a compound of this invention, the acquisition trial according to the passive avoidance training was performed on the rats. A foot shock was given to the rats when they entered into a dark room. Immediately after that an amnesic treatment by ECS or a sham amnesic treatment was performed. Twenty four (24) hours after the acquisition trial the retention trial was performed. Latency of the […] entering into a dark room was measured.

[2] = read-out: Anti-hypoxic Activity
[3] = 100 mg/kg i.p., 30 minutes before mixed gas, control = 100, read-out: Anti-hypoxic Activity

| SMILES | IC50 [1] [µM] | response vs control in vivo at 100 mg/kg (ICR male mice; [3]) [%] | further results |
| --- | --- | --- | --- |
| O=C(C1CSCCN1C(=O)CC1Cc2ccccc2C1)N1CCSC1 (racemic) [Example 5, 3-[4-(2-indanylacetyl)-DL-1,4-thiazan-3-ylcarbonyl]thiazolidine] | 0.022 |  |  |
| COc1ccc(C(=O)N2CCCC2=O)cc1 [Aniracetam, reference compound] | > 1000 |  | response vs control in vivo at 100 mg/kg (ICR male mice; [2]): 115%; response vs control in vivo at 300 mg/kg (ICR male mice; [2]): 159% |
| CC(C)(CO)[C@@H](O)C(=O)NCCCC(=O)O [Calcium hopantenate, reference compound] |  |  | response vs control in vivo at 250 mg/kg (ICR male mice; 250 mg/kg i.p., 30 minutes before mixed gas, control = 100): 135% |
| O=C([C@@H]1CSCN1C(=O)CC1Cc2ccccc2C1)N1CCSC1 [Example 1, 3-[3-(2-indanylacetyl)-L-thioprolyl]thiazolidine] |  | 131 | Latency to entering into a dark room (CD female rats): 77.0 s |
| O=C([C@@H]1CSCN1C(=O)CC1Cc2ccccc2C1)N1CCCC1 [Example 2, 1-[3-(2-indanylacetyl)-L-thioprolyl]pyrrolidine] |  | 127 |  |
| O=C([C@@H]1CCCN1C(=O)CC1Cc2ccccc2C1)N1CCCC1 [Example 4, 1-[1-(2-indanylacetyl)-L-prolyl]pyrrolidine] |  | 141 |  |
| O=C([C@@H]1CCCCN1C(=O)CC1Cc2ccccc2C1)N1CCCC1 [Example 10, 1-[1-(2-indanylacetyl)-L-piperidine-2ylcarbonyl]pyrrolidine] | 0.049 |  |  |
| O=C([C@H]1CCCCN1C(=O)CC1Cc2ccccc2C1)N1CCCC1 [Example 11, 1-[1-(2-indanylacetyl)-D-piperidine-2-ylcarbonyl]pyrrolidine] |  |  | response vs control in vivo at 50 mg/kg (ICR male mice; 50 mg/kg i.p., 30 minutes before mixed gas, control = 100): 141% |
| O=C(O)[C@@H]1CCCN1C(=O)[C@@H]1CCCN1C(=O)CC1Cc2ccccc2C1 [Example 17, 1-[1-(2-indanylacetyl)-L-prolyl]-L-proline] |  | 137 |  |
| O=C([C@@H]1CCCN1C(=O)CC1=Cc2ccccc2C1)N1CCSC1 [Example 18, 3-[1-(2-indenylacetyl)-L-prolyl]thiazolidine] | 0.043 |  |  |
| O=C([C@@H]1CCCN1C(=O)CC1=Cc2ccccc2C1)N1CCCC1 [Example 19, 1-[1-(2-indenyl-acetyl)-L-prolyl]pyrrolidine] |  | 155 |  |
| O=C([C@@H]1CCCN1C(=O)CC1CCc2ccccc2C1)N1CCCC1 (stereo partly drawn) [Example 24, 1-[1-(1,2,3,4-tetrahydronaphthalen-2-ylacetyl)-L-prolyl]pyrrolidine] |  | 235 |  |
| O=C([C@@H]1CSCN1C(=O)CCCC1Cc2ccccc2C1)N1CCCC1 [Example 26, 1-{3-[4-(indan-2-yl)butanoyl]-L-thioprolyl}pyrrolidine] |  | 291 |  |
| O=C[C@@H]1CCCN1C(=O)[C@@H]1CCCN1C(=O)CC1=Cc2ccccc2C1 [Example 42, 1-[1-(2-indenylacetyl)-L-prolyl]-L-prolinal] | 0.0013 | 168 |  |
| COC1=C(OC)C(=O)C(CCCCCCCCCCO)=C(C)C1=O [Idebenone, reference compound] |  | 140 |  |
